# Data: ChEMBL document CHEMBL5143621, “Design, synthesis, and biological evaluation of β-carboline 1,3,4-oxadiazole based hybrids as HDAC inhibitors with potential antitumor effects” (Bioorg Med Chem Lett, 2022)
# The source made the active and inactive calls. No cut-off for these calls is given here.
# Tests used:
# HCT-116 [1] = assay: Antiproliferative activity against human HCT-116 cells assessed as inhibition of cell proliferation incubated for 72 hrs by MTT assay; format: functional, cell-based; conditions: HCT-116, 72 h
# Histone deacetylase 1 = Histone deacetylase 1 (Homo sapiens, UniProt Q13547); assay: Inhibition of HDAC1 (unknown origin)
# Histone deacetylase 2 = Histone deacetylase 2 (Homo sapiens, UniProt Q92769); assay: Inhibition of HDAC2 (unknown origin)
# HCT-116 [2] = assay: Induction of apoptosis in human HCT-116 cells at 125 to 500 nM incubated for 48 hrs by AnnexinV-FITC/PI staining based flow cytometry; format: functional, cell-based; conditions: dose 125-500 nM
# HCT-116 [3] = assay: Inhibition of cell migration in human HCT-116 cells incubated for 48 hrs by wound healing scratch assay; format: functional, cell-based; conditions: dose 125-500 nM, DDE = dose-dependent effect
# MCF7 = assay: cells; format: functional, cell-based; conditions: Homo sapiens, MCF7, 72 h
# Description: Antiproliferative activity against human MCF7 cells assessed as inhibition of cell proliferation incubated for 72 hrs by MTT assay
# HCT-116 [4] = assay: Inhibition of colony formation in human HCT-116 cell incubated for 48 hrs by crystal violet staining based analysis; format: functional; conditions: dose 125-500 nM, DDE = dose-dependent effect
# [5] = molecular target: T1, Protein deacetylase HDAC6 (Homo sapiens, UniProt Q9UBN7); assay: Inhibition of HDAC6 (unknown origin)
# T1 sequence (Q9UBN7 whole entry): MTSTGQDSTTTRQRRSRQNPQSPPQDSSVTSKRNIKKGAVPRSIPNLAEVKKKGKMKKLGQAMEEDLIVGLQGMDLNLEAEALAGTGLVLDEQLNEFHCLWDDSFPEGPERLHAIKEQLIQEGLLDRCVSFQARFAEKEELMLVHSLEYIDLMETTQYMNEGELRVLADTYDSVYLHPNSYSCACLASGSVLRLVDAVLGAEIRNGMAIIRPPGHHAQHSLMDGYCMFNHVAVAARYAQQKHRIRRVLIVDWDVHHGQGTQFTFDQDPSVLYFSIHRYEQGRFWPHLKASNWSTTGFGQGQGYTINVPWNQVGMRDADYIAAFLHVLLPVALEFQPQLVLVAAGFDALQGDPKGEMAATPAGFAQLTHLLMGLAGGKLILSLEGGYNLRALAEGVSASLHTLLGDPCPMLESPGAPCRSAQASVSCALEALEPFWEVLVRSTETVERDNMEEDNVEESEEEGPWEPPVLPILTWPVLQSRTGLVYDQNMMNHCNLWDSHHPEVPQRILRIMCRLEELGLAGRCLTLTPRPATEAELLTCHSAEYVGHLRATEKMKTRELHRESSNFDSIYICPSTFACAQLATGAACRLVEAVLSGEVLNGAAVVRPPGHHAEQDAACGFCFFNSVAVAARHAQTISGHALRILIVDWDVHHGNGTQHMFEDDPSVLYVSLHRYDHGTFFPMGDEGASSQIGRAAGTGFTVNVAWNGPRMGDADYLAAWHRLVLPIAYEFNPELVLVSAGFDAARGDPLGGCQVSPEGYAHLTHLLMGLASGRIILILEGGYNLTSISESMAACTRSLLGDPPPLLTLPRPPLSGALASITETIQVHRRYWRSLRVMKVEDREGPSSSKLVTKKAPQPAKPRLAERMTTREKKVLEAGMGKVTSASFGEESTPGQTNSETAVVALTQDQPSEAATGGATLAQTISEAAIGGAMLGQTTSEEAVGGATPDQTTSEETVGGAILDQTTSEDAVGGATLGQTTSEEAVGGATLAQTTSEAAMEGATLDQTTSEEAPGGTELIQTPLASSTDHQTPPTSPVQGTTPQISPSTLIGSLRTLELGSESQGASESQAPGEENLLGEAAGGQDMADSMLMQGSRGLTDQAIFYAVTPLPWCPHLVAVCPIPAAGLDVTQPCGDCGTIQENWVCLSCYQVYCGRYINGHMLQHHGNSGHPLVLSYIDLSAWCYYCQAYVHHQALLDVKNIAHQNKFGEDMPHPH
# HCT-116 [6] = assay: Induction of apoptosis in human HCT-116 cells assessed as increase in number of brilliant blue apoptotic cells at 125 to 500 nM incubated for 48 hrs by Hoechst 33342 staining based fluorescence microscopic analysis; format: functional, cell-based; conditions: dose 125-500 nM
# in vitro = conditions: human, L02 cells
# Description: Cytotoxicity against human L02 cells assessed as inhibition of cell proliferation incubated for 72 hrs by MTT assay
# Histone deacetylase 8 = molecular target: T2, Histone deacetylase 8 (Homo sapiens, UniProt Q9BY41); assay: Inhibition of HDAC8 (unknown origin)
# T2 sequence (Q9BY41 whole entry): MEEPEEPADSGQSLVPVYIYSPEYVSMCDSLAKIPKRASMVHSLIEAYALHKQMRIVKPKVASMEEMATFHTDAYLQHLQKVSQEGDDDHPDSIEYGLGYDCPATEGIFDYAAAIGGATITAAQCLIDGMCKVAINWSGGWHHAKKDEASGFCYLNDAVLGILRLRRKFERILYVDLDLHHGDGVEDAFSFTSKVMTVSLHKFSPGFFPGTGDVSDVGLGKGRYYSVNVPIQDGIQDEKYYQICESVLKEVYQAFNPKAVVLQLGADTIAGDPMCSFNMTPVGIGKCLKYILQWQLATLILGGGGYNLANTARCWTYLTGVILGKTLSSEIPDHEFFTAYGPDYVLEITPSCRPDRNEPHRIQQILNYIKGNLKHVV
# A549 = assay: cells; format: functional, cell-based; conditions: Homo sapiens, A549, 72 h
# Description: Antiproliferative activity against human A549 cells assessed as inhibition of cell proliferation incubated for 72 hrs by MTT assay
# SW480 = assay: cells; format: functional, cell-based; conditions: Homo sapiens, SW480, 72 h
# Description: Antiproliferative activity against human SW480 cells assessed as inhibition of cell proliferation incubated for 72 hrs by MTT assay
# Histone deacetylase 3 = Histone deacetylase 3 (Homo sapiens, UniProt O15379); assay: Inhibition of HDAC3 (unknown origin)
# Chain of Histone deacetylase 3 (O15379 whole entry): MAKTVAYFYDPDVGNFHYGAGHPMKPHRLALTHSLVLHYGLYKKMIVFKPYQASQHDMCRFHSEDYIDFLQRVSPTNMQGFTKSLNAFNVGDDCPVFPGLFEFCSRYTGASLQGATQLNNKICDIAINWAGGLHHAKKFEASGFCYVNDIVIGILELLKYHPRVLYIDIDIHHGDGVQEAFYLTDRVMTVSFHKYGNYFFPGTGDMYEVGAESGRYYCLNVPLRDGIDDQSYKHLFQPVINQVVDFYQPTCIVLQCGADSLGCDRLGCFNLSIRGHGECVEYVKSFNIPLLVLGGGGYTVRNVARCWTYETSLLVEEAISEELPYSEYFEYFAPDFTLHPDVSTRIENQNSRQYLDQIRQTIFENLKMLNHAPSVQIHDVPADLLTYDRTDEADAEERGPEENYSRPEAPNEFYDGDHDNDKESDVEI
# Chain of Histone deacetylase 1 (Q13547 whole entry): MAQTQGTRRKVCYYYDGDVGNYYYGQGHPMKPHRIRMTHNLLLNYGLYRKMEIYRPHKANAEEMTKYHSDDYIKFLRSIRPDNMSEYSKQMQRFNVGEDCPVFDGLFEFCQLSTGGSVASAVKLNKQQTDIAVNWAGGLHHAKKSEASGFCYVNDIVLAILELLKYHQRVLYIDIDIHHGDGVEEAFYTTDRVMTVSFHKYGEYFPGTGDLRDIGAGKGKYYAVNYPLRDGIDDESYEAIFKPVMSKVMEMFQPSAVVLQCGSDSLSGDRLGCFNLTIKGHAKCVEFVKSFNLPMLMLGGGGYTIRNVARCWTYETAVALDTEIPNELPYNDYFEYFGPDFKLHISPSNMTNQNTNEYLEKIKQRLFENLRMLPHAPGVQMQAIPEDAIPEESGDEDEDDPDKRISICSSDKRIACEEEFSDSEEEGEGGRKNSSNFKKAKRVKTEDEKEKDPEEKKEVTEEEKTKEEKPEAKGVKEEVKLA
# Chain of Histone deacetylase 2 (Q92769 whole entry): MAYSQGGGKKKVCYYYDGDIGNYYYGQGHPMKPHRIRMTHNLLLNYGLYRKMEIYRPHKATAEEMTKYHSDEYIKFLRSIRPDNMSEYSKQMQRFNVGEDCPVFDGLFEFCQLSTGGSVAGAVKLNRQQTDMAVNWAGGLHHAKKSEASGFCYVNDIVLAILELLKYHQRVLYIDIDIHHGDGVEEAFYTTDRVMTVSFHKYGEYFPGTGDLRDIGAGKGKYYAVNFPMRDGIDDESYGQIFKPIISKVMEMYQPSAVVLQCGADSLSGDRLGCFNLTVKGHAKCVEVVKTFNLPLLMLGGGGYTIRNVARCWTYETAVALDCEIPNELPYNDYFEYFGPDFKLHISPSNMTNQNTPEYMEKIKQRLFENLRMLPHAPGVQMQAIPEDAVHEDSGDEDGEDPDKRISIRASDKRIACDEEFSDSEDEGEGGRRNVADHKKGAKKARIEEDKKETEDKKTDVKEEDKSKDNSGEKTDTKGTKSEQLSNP
structure (smiles),measurement,setting,value
O=C(NO)c1ccc(-c2nnc(-c3cc4c([nH]c5ccccc54)c(-c4ccc(C(F)(F)F)cc4)n3)o2)cc1,IC50,HCT-116 [1],9400 nM
O=C(CCCc1nnc(-c2cc3c([nH]c4ccccc43)c(-c3ccc(C(F)(F)F)cc3)n2)o1)NO,IC50,HCT-116 [1],1360 nM
COc1cc(-c2nc(-c3nnc(CCCC(=O)NO)o3)cc3c2[nH]c2ccccc23)cc(OC)c1OC,IC50,HCT-116 [1],1850 nM
Nc1ccccc1NC(=O)c1ccc(-c2nnc(-c3cc4c([nH]c5ccccc54)c(-c4ccc(C(F)(F)F)cc4)n3)o2)cc1,IC50,Histone deacetylase 1,> 600 nM
same,IC50,HCT-116 [1],> 10000 nM
COc1cc(-c2nc(-c3nnc(CCC(=O)NO)o3)cc3c2[nH]c2ccccc23)cc(OC)c1OC,IC50,HCT-116 [1],6970 nM
O=C(CCCc1nnc(-c2cc3c([nH]c4ccccc43)c(-c3ccccc3)n2)o1)NO,IC50,HCT-116 [1],7180 nM
COc1cc(-c2nc(-c3nnc(-c4ccc(C(=O)NO)cc4)o3)cc3c2[nH]c2ccccc23)cc(OC)c1OC,IC50,HCT-116 [1],> 10000 nM
O=C(CCCCc1nnc(-c2cc3c([nH]c4ccccc43)c(-c3ccc(C(F)(F)F)cc3)n2)o1)NO,IC50,Histone deacetylase 2,2.2 nM
same,IC50,Histone deacetylase 1,2.2 nM
same,Activity,HCT-116 [2],Active
same,inhibition,HCT-116 [3],Dde
same,IC50,MCF7,695 nM
same,inhibition,HCT-116 [4],Dde
same,IC50,[5],6 nM
same,Activity,HCT-116 [6],Active
same,IC50 at 72 h,in vitro,> 10000 nM
same,IC50,Histone deacetylase 8,> 600 nM
same,IC50,A549,1740 nM
same,IC50,SW480,382 nM
same,IC50,Histone deacetylase 3,3.4 nM
same,IC50,HCT-116 [1],173 nM
O=C(CCCCc1nnc(-c2cc3c([nH]c4ccccc43)c(-c3ccccc3)n2)o1)NO,IC50,Histone deacetylase 1,1.2 nM
same,IC50,MCF7,3760 nM
same,IC50,A549,< 5000 nM
same,IC50,HCT-116 [1],247 nM
O=C(CCc1nnc(-c2cc3c([nH]c4ccccc43)c(-c3ccc(C(F)(F)F)cc3)n2)o1)NO,IC50,HCT-116 [1],2310 nM
O=C(CCc1nnc(-c2cc3c([nH]c4ccccc43)c(-c3ccccc3)n2)o1)NO,IC50,HCT-116 [1],> 10000 nM
COc1cc(-c2nc(-c3nnc(CCCCC(=O)NO)o3)cc3c2[nH]c2ccccc23)cc(OC)c1OC,IC50,Histone deacetylase 2,1.2 nM
same,IC50,Histone deacetylase 1,1.4 nM
same,IC50,MCF7,541 nM
same,IC50,[5],7.3 nM
same,IC50,Histone deacetylase 8,> 600 nM
same,IC50,A549,1340 nM
same,IC50,Histone deacetylase 3,3.6 nM
same,IC50,HCT-116 [1],190 nM
